From patent publication US20250230193A1, “CYCLIC COMPOUND HAVING SELECTIVE KRAS INHIBITORY EFFECT ON HRAS AND NRAS” (CHUGAI SEIYAKU KABUSHIKI KAISHA, priority 2022, published 2025)
Where a SMILES comes first, the peptide text is derived from it. Bridges are numbered along the chain shown (N, C = ends). [ ]: non-standard residue; d: D form. hPhe(3-Cl-4-CF3) = N[C@@H](CCc1ccc(C(F)(F)F)c(Cl)c1)C(=O)O; NPrPhe(4-CF3) = CCCN[C@@H](Cc1ccc(C(F)(F)F)cc1)C(=O)O; NMeGly(cPent) = CN[C@H](C(=O)O)C1CCCC1; Pro(4,4-F2) = O=C(O)[C@@H]1CC(F)(F)CN1; NMeL = CN[C@@H](CC(C)C)C(=O)O; NMeA = CN[C@@H](C)C(=O)O; Aze = O=C(O)[C@@H]1CCN1; Ac4c = NC1(C(=O)O)CCC1; Sar = CNCC(=O)O

Assays:
[1] = target: GDP-bound NRAS wild-type protein (Homo sapiens, UniProt P01111); assay: Binding to NRAS by surface plasmon resonance (SPR), Single Cycle Kinetics
Chain of GDP-bound NRAS wild-type protein (P01111 whole entry): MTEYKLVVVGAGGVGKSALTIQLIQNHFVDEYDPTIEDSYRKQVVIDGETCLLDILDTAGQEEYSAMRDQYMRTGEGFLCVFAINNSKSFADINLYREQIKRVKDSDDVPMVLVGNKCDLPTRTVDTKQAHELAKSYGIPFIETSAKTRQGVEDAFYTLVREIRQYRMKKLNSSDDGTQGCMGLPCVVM

[2] = target: GDP-bound HRAS wild-type protein (Homo sapiens, UniProt P01112); assay: Binding to HRAS by surface plasmon resonance (SPR), Single Cycle Kinetics
Chain of GDP-bound HRAS wild-type protein (P01112 whole entry): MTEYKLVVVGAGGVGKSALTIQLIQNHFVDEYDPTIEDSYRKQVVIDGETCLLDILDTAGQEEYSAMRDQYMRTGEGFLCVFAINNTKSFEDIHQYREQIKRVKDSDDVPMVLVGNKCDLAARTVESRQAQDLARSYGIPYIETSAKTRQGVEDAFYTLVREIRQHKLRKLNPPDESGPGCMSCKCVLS

[3] = KD ratio, GDP-bound NRAS wild-type vs GDP-bound KRAS wild-type, SPR
[4] = KD ratio, GDP-bound HRAS wild-type vs GDP-bound KRAS wild-type, SPR
[5] = SPR, GDP-bound NRAS wild-type vs GDP-bound KRAS wild-type
[6] = SPR, GDP-bound HRAS wild-type vs GDP-bound KRAS wild-type

## CCCN1C(=O)[C@@H]2CCN2C(=O)[C@H](C)N(C)C(=O)[C@H]([C@@H](C)CC)NC(=O)[C@H](CC(C)C)N(C)C(=O)C[C@@H](C(=O)N(C)C)NC(=O)[C@H](C2CCCC2)N(C)C(=O)C2(CCC2)NC(=O)[C@@H]2CC(F)(F)CN2C(=O)[C@H](CCc2ccc(C(F)(F)F)c(Cl)c2)NC(=O)CN(C)C(=O)[C@@H]1Cc1ccc(C(F)(F)F)cc1 [PP0382] ([NMeL]I[NMeA][Aze][NPrPhe(4-CF3)][Sar][hPhe(3-Cl-4-CF3)][Pro(4,4-F2)][Ac4c][NMeGly(cPent)]D-NMe2; lactam N-11)
[1]; KD ratio NRAS/KRAS, SPR
  NRAS/KRAS (ratio of KD for GDP-bound NRAS wild-type to KD for KRAS): C (A compound having a KD ratio of 0.1 or more and less than 3 is denoted as C)
[2]; KD ratio HRAS/KRAS, SPR
  HRAS/KRAS (ratio of KD for GDP-bound HRAS wild-type to KD for KRAS): B (a compound having 3 or more and less than 10 is denoted as B)

## CCC[C@H]1C(=O)N[C@@H]([C@@H](C)CC)C(=O)N(C2CC2)CC(=O)N(C)[C@H]2C/C=C\CCN(C2=O)[C@@H](Cc2ccc(C(F)(F)F)cc2)C(=O)N(C)CC(=O)N[C@@H](CCc2ccc(C(F)(F)F)c(OC)c2)C(=O)N2C[C@H](OCC)C[C@H]2C(=O)N(C)C2(CCC2)C(=O)N(C)[C@@H](C2CCCC2)C(=O)N(C)[C@H](C(=O)N2CCCC2)CC(=O)N1C [PP3097]
[1]; KD ratio NRAS/KRAS, SPR, GDP-bound wild-type proteins
  NRAS/KRAS (ratio of KD value with respect to GDP-bound NRAS wild-type protein to KD value with respect to KRAS): A (a compound having 10 or more and less than 20 is denoted as A)
[2]; KD ratio HRAS/KRAS, SPR, GDP-bound wild-type proteins
  HRAS/KRAS (ratio of KD value with respect to GDP-bound HRAS wild-type protein to KD value with respect to KRAS): A (a compound having 10 or more and less than 20 is denoted as A)

## CCC[C@H]1C(=O)N[C@@H]([C@@H](C)CC)C(=O)N(C)CC(=O)N(C)[C@H]2C/C=C\CCN(C2=O)[C@@H](Cc2ccc(C(F)(F)F)cc2)C(=O)N(C)CC(=O)N[C@@H](CCc2cc(F)c(C(F)(F)F)c(F)c2)C(=O)N2C[C@H](OCC)C[C@H]2C(=O)NC2(CCC2)C(=O)N(C)[C@@H](C2CCCC2)C(=O)N(CCC)[C@H](C(=O)N(C)C)CC(=O)N1C [PP1769]
[1]; [3]
  NRAS/KRAS (ratio of KD value for NRAS to KD value for KRAS): A (a compound having 10 or more and less than 20 is denoted as A)
[2]; [4]
  HRAS/KRAS (ratio of KD value for HRAS to KD value for KRAS): A (a compound having 10 or more and less than 20 is denoted as A)

## CC[C@H](C)[C@@H]1NC(=O)[C@H](CC(C)C)N(C)C(=O)C[C@@H](C(=O)N2CCOCC2)N(C)C(=O)[C@H](C2CCCC2)N(C)C(=O)C2(CCC2)NC(=O)[C@]2(C)CCCN2C(=O)[C@H](CCc2cc(F)c(C(F)(F)F)c(F)c2)NC(=O)CN(C)C(=O)[C@H](Cc2ccc(C(F)(F)F)cc2)N2CCCCC[C@@H](C2=O)N(C)C(=O)CN(C)C1=O [PP0817]
[1]; [3]
  NRAS/KRAS (ratio of KD value with respect to NRAS to KD value with respect to KRAS): A (a compound having 10 or more and less than 20 is denoted as A)
[2]; [4]
  HRAS/KRAS (ratio of KD value with respect to HRAS to KD value with respect to KRAS): B (a compound having 3 or more and less than 10 is denoted as B)

## CCCO[C@H](C)[C@@H]1NC(=O)[C@H](CC(C)C)N(C)C(=O)C[C@@H](C(=O)N(C)CC)N(C)C(=O)[C@H](C2CCCC2)N(C)C(=O)C2(CC(C)(C)C2)NC(=O)[C@@H]2C[C@H](C)CN2C(=O)[C@H](CCc2cc(F)c(C(F)(F)F)c(F)c2)NC(=O)CN(C)C(=O)[C@H](Cc2ccc(C)cc2)N2CC/C=C\C[C@@H](C2=O)N(C)C(=O)CN(C)C1=O [PP2417]
[1]; [5]
  NRAS/KRAS (ratio of KD value with respect to NRAS to KD value with respect to KRAS): A (a compound having 10 or more and less than 20 is denoted as A)
[2]; [6]
  HRAS/KRAS (ratio of KD value with respect to HRAS to KD value with respect to KRAS): A (a compound having 10 or more and less than 20 is denoted as A)

## CCCN(C)C(=O)[C@@H]1CC(=O)N(C)[C@@H](CC)C(=O)N[C@@H]([C@@H](C)CC)C(=O)N(C)CC(=O)N(C)[C@H]2C/C=C\CCN(C2=O)[C@@H](Cc2ccc(C(F)(F)F)cc2)C(=O)N(C)CC(=O)N[C@@H](CCc2cc(F)c(C(F)(F)F)c(F)c2)C(=O)N2C[C@H](OCC3CC3)C[C@H]2C(=O)NC2(CCC2)C(=O)N(C)[C@@H](C2CCCC2)C(=O)N1C [PP2913]
[1]; KD ratio NRAS/KRAS, class symbols
  NRAS/KRAS (ratio of KD value with respect to GDP-bound NRAS wild-type protein to KD value with respect to KRAS): A (a compound having 10 or more and less than 20 is denoted as A)
[2]; KD ratio HRAS/KRAS, class symbols
  HRAS/KRAS (ratio of KD value with respect to GDP-bound HRAS wild-type protein to KD value with respect to KRAS): A (a compound having 10 or more and less than 20 is denoted as A)

## CC[C@H](C)[C@@H]1NC(=O)[C@H](C(C)C)N(C)C(=O)C[C@@H](C(=O)N(C)CC)N(C)C(=O)[C@H](C2CCCC2)N(C)C(=O)C2(CCC2)NC(=O)[C@@H]2C[C@H](C)CN2C(=O)[C@H](CCc2cc(F)c(C(F)(F)F)c(F)c2)NC(=O)CN(C)C(=O)[C@H](Cc2ccc(C(F)(F)F)cc2)N2CC/C=C\C[C@@H](C2=O)N(C)C(=O)CN(C)C1=O [PP2078]
[1]; [5]
  NRAS/KRAS (ratio of KD value with respect to NRAS to KD value with respect to KRAS): AA (a compound having 20 or more is denoted as AA)
[2]; [6]
  HRAS/KRAS (ratio of KD value with respect to HRAS to KD value with respect to KRAS): A (a compound having 10 or more and less than 20 is denoted as A)

## CCO[C@@H]1C[C@H]2C(=O)NC3(CCC3)C(=O)N(C)[C@@H](C(CC)CC)C(=O)N(C)[C@H](C(=O)N(C)CCOC)CC(=O)N(C)[C@@H](CC)C(=O)N[C@@H]([C@@H](C)CC)C(=O)N(C)CC(=O)N(C)[C@H]3C/C=C\CCN(C3=O)[C@@H](Cc3ccc(C(F)(F)F)cc3)C(=O)N(C)CC(=O)N[C@@H](CCc3cc(F)c(C(F)(F)F)c(F)c3)C(=O)N2C1 [PP1330]
[1]; SPR, KD ratio class
  NRAS/KRAS (ratio of KD value for GDP-bound NRAS wild-type protein to KD value for KRAS): AA (a compound having 20 or more is denoted as AA)
[2]; SPR, KD ratio class
  HRAS/KRAS (ratio of KD value for GDP-bound HRAS wild-type protein to KD value for KRAS): A (a compound having 10 or more and less than 20 is denoted as A)
